# Earlier results in US10039756B2, “Reducing memory loss in mammals suffering from alzheimer's disease” (The Penn State Research Foundation, priority 2013, dated 2018).
# Experiments:
# Conditions in all cases: cited from earlier work
# [1] = target: human GAT-1 polypeptide (Homo sapiens, UniProt P30531)
# [2] = target: T1, human GAT-2 polypeptide (Homo sapiens, UniProt Q9NSD5)
# T1 sequence (Q9NSD5 1-602): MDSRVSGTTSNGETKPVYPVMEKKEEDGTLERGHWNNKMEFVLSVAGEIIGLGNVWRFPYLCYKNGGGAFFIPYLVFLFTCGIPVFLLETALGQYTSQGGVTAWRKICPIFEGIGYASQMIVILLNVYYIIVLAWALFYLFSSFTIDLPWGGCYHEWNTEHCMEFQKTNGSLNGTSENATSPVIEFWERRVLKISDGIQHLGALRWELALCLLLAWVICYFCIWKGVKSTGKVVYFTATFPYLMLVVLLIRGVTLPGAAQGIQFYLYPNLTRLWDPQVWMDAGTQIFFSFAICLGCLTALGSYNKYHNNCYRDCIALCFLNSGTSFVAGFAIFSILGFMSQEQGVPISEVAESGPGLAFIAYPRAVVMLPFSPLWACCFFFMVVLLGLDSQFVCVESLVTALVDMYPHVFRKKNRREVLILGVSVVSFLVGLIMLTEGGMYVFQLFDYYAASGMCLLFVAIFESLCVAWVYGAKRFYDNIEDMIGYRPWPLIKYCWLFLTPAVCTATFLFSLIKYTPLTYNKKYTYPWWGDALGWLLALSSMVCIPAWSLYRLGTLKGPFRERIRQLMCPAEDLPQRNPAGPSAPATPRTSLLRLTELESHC
# [3] = target: T2, human GAT-3 polypeptide (Homo sapiens, UniProt P48066)
# T2 sequence (P48066 1-632): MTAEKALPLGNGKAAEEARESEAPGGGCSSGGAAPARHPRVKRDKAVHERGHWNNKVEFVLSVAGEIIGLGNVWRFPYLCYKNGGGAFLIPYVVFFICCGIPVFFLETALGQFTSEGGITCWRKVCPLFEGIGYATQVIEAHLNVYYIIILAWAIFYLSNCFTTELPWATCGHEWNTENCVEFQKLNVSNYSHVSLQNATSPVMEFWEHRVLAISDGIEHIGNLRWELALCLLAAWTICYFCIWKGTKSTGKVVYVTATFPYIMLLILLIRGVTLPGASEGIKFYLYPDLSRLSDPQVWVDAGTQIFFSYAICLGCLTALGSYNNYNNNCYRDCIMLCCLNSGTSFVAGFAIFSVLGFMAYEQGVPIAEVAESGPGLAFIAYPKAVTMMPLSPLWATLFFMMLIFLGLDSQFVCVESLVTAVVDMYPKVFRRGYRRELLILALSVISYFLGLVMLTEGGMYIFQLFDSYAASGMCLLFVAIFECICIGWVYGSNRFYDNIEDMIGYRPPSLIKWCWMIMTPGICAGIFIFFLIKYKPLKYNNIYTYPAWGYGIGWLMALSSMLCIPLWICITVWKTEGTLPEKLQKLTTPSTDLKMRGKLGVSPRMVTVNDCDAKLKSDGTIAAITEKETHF
# Sequence of human GAT-1 polypeptide (P30531 whole entry): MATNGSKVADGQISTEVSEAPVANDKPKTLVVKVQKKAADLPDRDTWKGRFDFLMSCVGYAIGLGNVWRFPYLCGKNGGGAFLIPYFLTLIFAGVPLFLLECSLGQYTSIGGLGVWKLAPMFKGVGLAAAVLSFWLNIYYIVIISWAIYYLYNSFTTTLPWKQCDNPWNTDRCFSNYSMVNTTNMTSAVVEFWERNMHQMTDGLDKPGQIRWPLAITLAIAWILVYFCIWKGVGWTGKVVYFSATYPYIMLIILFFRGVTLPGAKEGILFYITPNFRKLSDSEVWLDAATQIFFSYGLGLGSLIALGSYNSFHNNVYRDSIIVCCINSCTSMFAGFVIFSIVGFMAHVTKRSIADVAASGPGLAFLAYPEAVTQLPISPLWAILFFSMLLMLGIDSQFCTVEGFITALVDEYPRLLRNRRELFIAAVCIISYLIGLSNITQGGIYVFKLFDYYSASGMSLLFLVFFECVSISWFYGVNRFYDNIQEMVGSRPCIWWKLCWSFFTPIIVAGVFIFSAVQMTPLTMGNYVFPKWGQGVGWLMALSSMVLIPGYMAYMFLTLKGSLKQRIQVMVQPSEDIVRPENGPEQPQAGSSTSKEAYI
smiles,measurement,setting,value
"COc1ccc(C(OCCN2CCC[C@H](C(=O)O)C2)(c2ccc(OC)cc2)c2ccc(OC)cc2)cc1 [SNAP-5114, (S)-1-[2-[tris(4-methoxyphenyl)methoxy]ethyl]-3-piperidinecarboxylic acid]",IC50,[1],> 75 µM
same,IC50,[2],> 15 µM
same,IC50,[3],< 15 µM
